Measured values as given in patent US8710224B2, “Heterocyclic compounds as CCR2B antagonists” (AstraZeneca AB, priority 2004, dated 2014).
pIC50: −log10 of the molar value.

The molecules below were run against T1, recombinant human CCR5 receptor (Homo sapiens, UniProt P51681) (assay: Radioligand binding assay for inhibition of the binding of MIP-1α). Conditions: displacement of 0.1 nM iodinated MIP-1α; membranes of Chinese hamster ovary cells expressing CCR5.
T1 construct: expressed in transfected cells; host or cells: Chinese hamster ovary (CHO) cells; membranes
Procedure, shortened: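 Membranes from CHO cells expressing recombinant human CCR5 were incubated with 0.1 nM iodinated MIP-1α, scintillation proximity beads and compound at various concentrations. Bound radioligand was measured by scintillation counting.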

T1 sequence (P51681 whole entry): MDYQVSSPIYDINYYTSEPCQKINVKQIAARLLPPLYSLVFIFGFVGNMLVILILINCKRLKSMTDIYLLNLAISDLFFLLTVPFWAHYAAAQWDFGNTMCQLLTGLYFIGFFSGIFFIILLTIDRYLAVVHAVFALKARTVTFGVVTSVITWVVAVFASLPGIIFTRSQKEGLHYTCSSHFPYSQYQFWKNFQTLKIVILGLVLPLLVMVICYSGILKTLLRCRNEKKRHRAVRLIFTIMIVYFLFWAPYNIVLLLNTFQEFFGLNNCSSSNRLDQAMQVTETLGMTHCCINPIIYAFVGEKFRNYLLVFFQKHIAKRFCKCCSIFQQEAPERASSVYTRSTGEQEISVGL

Row | SMILES | pIC50
1 | C=C(C)CN1CCN[C@@H](C(=O)N2CCN(C(=O)Nc3ccc(Cl)c(Cl)c3)CC2)C1 [Example 304, N-(3,4-dichlorophenyl)-4-{[(2R)-4-(2-methylprop-2-en-1-yl)piperazin-2-yl]carbonyl}piperazine-1-carboxamide] | > 5.00
2 | CC(C)N1CCN[C@@H](C(=O)N2CCN(C(=O)Nc3ccc(C(F)(F)F)cn3)CC2)C1 [Example 311, 4-{[(2R)-4-isopropylpiperazin-2-yl]carbonyl}-N-[5-(trifluoromethyl)pyridin-2-yl]piperazine-1-carboxamide] | > 5.00
3 | CS(=O)(=O)c1ccc(CN2CCC[C@@H](CN3CCN(C(=O)Nc4ccc(Cl)c(Cl)c4)CC3)C2)c(Cl)c1 [Example 322, 4-({(3R)-1-[2-Chloro-4-(methylsulfonyl)benzyl]piperidin-3-yl}methyl)-N-(3,4-dichlorophenyl)piperazine-1-carboxamide] | > 5.00
4 | Cc1ccc(NC(=O)N2CCN(C[C@@H]3CCCN(CCCc4ccc(S(C)(=O)=O)cc4)C3)CC2)cc1Cl [Example 324, N-(3-Chloro-4-methylphenyl)-4-[((3R)-1-{3-[4-(methylsulfonyl)phenyl]propyl}piperidin-3-yl)methyl]piperazine-1-carboxamide] | > 5.00

The next lines start with the values.

Row | pIC50 | SMILES
5 | > 5.00 | CS(=O)(=O)c1ccc(CCCN2CCC[C@@H](CN3CCN(C(=O)Nc4ccc(Cl)cc4)CC3)C2)cc1 [Example 325, N-(4-Chlorophenyl)-4-[((3R)-1-{3-[4-(methylsulfonyl)phenyl]propyl}piperidin-3-yl)methyl]piperazine-1-carboxamide]
6 | > 5.00 | CS(=O)(=O)c1ccc(CCCN2CCC[C@@H](CN3CCN(C(=O)Nc4ccc(C(F)(F)F)cc4)CC3)C2)cc1 [Example 326, 4-[((3R)-1-{3-[4-(Methylsulfonyl)phenyl]propyl}piperidin-3-yl)methyl]-N-[4-(trifluoromethyl)phenyl]piperazine-1-carboxamide]
7 | > 5.00 | CS(=O)(=O)c1ccc(CCCN2CCC[C@@H](CN3CCN(C(=O)Nc4cccc(Cl)c4)CC3)C2)cc1 [Example 327, N-(3-Chlorophenyl)-4-[((3R)-1-{3-[4-(methylsulfonyl)phenyl]propyl}piperidin-3-yl)methyl]piperazine-1-carboxamide]
8 | > 5.00 | CS(=O)(=O)c1ccc(CCCN2CCC[C@@H](CN3CCN(C(=O)Nc4ccc(Cl)c(Cl)c4)CC3)C2)cc1 [Example 328, N-(3,4-Dichlorophenyl)-4-[((3R)-1-{3-[4-(methylsulfonyl)phenyl]propyl}piperidin-3-yl)methyl]piperazine-1-carboxamide]
